From patent publication US20020137929A1, “1 - (3-heterocyclylphenyl) isothiourea, -isourea, -guanidine and -amidine herbicidal agents” (Intellectual Property Department, BASF Aktiengesellschaft, priority 1998, published 2002)

Experiments:
SETVI (Foxtail, Green) [1] = test: Preemergence herbicidal evaluation; assay type: in vivo, Setaria viridis; details: rated 4-5 weeks after treatment
Procedure, shortened: (§1)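 Each species is sown separately in potting soil over roughly an inch of soil before any emergence. The soil surface then receives an aqueous acetone spray delivering about 0.0156 to 0.500 kg/ha of compound. After four to five weeks, injury is scored from 0 to 9 relative to a control.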

ECHCG (Barnyardgrass) = test: Postemergence herbicidal evaluation; assay type: in vivo, Echinochloa crus-galli; details: postemergence
Procedure, shortened: (§2)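 Young plants, roughly two weeks from seeding, receive the active ingredient as a sprayed dispersion (acetone/water 50/50, 0.5% TWEEN 20) at 40 psi. Doses span about 0.0156 to 0.500 kg/ha. A visual score from 0 to 9 compares treated with control plants four to five weeks on.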

AMBEL (Ragweed, Common) = test: Postemergence herbicidal evaluation; assay type: in vivo, Ambrosia artemisifolia; details: postemergence
Procedure, shortened: as §2

[2] = system: SAGPY (Arrowhead (Pygmaea)); test: Preemergence weed control under flooded paddy conditions; assay type: in vivo, Sagittaria pygmaea; details: rated 3-4 weeks after treatment
Procedure, shortened: (§3)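 Visual injury scored 0-9 against control three to four weeks post-treatment, greenhouse-grown. Application: acetone/water (50/50) solutions dosed directly into flood water (1.5-3 cm over silt loam, planted top 0.5 cm), roughly 0.0313 to 0.500 kg/ha active ingredient.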

ORYSAT (Rice, Tebonnet) = test: Postemergence herbicidal evaluation; assay type: in vivo, Oryza sativa, (L.) Tebonnet; details: postemergence
Procedure, shortened: as §2

CYPIR (Rice Flatsedge) = test: Postemergence weed control under flooded paddy conditions; assay type: in vivo, Cyperus iria; details: postemergence weeds, 3-4 weeks after treatment
Procedure, shortened: (§4)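 Herbicidal effect is judged by eye on a 0–9 scale versus control, 3–4 weeks after dosing. Dosing is into flood water kept 1.5–3 cm over the soil, at about 0.0313–0.500 kg/ha in aqueous/acetone 50/50 v/v, on 3–5 cm weeds and 1.5–2.5-leaf rice seedlings.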

[3] = system: SAGPY (Arrowhead (Pygmaea)); test: as above; assay type: in vivo, Sagittaria pygmaea; details: postemergence weeds, 3-4 weeks after treatment
Procedure, shortened: as §4

CASOB (Sicklepod) = test: Preemergence herbicidal evaluation; assay type: in vivo, Cassia obtusifolia; details: rated 4-5 weeks after treatment
Procedure, shortened: as §1

ABUTH (Velvetleaf) [4] = test: Preemergence herbicidal evaluation; assay type: in vivo, Abutilon theophrasti; details: rated 4-5 weeks after treatment
Procedure, shortened: as §1

SETVI (Foxtail, Green) [5] = test: Postemergence herbicidal evaluation; assay type: in vivo, Setaria viridis; details: postemergence
Procedure, shortened: as §2

[6] = system: GLXMAW (Soybean, Williams); test: Postemergence herbicidal evaluation; assay type: in vivo, Glycine max, (L.) Merr. cv Williams; details: postemergence
Procedure, shortened: as §2

[7] = system: TRZAWR (Wheat, Winter, cv Riband); test: Postemergence herbicidal evaluation; assay type: in vivo, Triticum aestivum; details: postemergence
Procedure, shortened: as §2

MOOVA (Monochoria) = test: Preemergence weed control under flooded paddy conditions; assay type: in vivo, Monochoria vaginalis; details: rated 3-4 weeks after treatment
Procedure, shortened: as §3

ABUTH (Velvetleaf) [8] = test: Postemergence herbicidal evaluation; assay type: in vivo, Abutilon theophrasti; details: postemergence
Procedure, shortened: as §2

CCOC(=O)CN1C(=O)CN(C)C1=Nc1cc(-n2c(=O)cc(C(F)(F)F)n(C)c2=O)c(F)cc1Cl [Compound 25, Ethyl 2-{{2-chloro-5-[3,6-dihydro-3-methyl-2,6-dioxo-4-(trifluoromethyl)-1(2H)-pyrimidinyl]-4-fluorophenyl}imino}-3-methyl-5-oxo-1-imidazolidineacetate]
Preemergence herbicidal rating SETVI (SETVI (Foxtail, Green) [1]; rate 0.0156 kg/ha): 0.0
Preemergence herbicidal rating SETVI (SETVI (Foxtail, Green) [1]; rate 0.0313 kg/ha): 0.0
SETVI preemergence herbicidal rating (SETVI (Foxtail, Green) [1]; rate 0.0625 kg/ha): 7.0
SETVI preemergence herbicidal rating (SETVI (Foxtail, Green) [1]; rate 0.1250 kg/ha): 9.0
SETVI preemergence herbicidal rating (SETVI (Foxtail, Green) [1]; rate 0.2500 kg/ha): 9.0
ECHCG herbicidal rating (ECHCG (Barnyardgrass); rate 0.0156 kg/ha): 0.0
ECHCG herbicidal rating (ECHCG (Barnyardgrass); rate 0.0313 kg/ha): 0.0
ECHCG herbicidal rating (ECHCG (Barnyardgrass); rate 0.0625 kg/ha): 0.0
AMBEL herbicidal rating (AMBEL (Ragweed, Common); rate 0.0156 kg/ha): 3.0
AMBEL herbicidal rating (AMBEL (Ragweed, Common); rate 0.0313 kg/ha): 4.0
AMBEL herbicidal rating (AMBEL (Ragweed, Common); rate 0.0625 kg/ha): 9.0
Herbicidal rating SAGPY ([2]; 0.0313 kg/ha): 0.0
Herbicidal rating SAGPY ([2]; 0.0625 kg/ha): 0.0
Herbicidal rating SAGPY ([2]; 0.1250 kg/ha): 5.0
Herbicidal rating SAGPY ([2]; 0.2500 kg/ha): 5.0
ORYSAT herbicidal rating (ORYSAT (Rice, Tebonnet); rate 0.0156 kg/ha): 0.5
ORYSAT herbicidal rating (ORYSAT (Rice, Tebonnet); rate 0.0313 kg/ha): 2.0
ORYSAT herbicidal rating (ORYSAT (Rice, Tebonnet); rate 0.0625 kg/ha): 2.0
Herbicidal rating CYPIR (CYPIR (Rice Flatsedge); rate 0.0313 kg/ha): 0.0
Herbicidal rating CYPIR (CYPIR (Rice Flatsedge); rate 0.0625 kg/ha): 0.0
Herbicidal rating CYPIR (CYPIR (Rice Flatsedge); rate 0.1250 kg/ha): 0.0
Herbicidal rating CYPIR (CYPIR (Rice Flatsedge); rate 0.2500 kg/ha): 0.0
Herbicidal rating SAGPY ([3]; rate 0.0313 kg/ha): 0.0
Herbicidal rating SAGPY ([3]; rate 0.0625 kg/ha): 0.0
Herbicidal rating SAGPY ([3]; rate 0.1250 kg/ha): 5.0
Herbicidal rating SAGPY ([3]; rate 0.2500 kg/ha): 5.0
Preemergence herbicidal rating CASOB (CASOB (Sicklepod); rate 0.0156 kg/ha): 0.0
Preemergence herbicidal rating CASOB (CASOB (Sicklepod); rate 0.0313 kg/ha): 0.0
CASOB preemergence herbicidal rating (CASOB (Sicklepod); rate 0.0625 kg/ha): 0.0
CASOB preemergence herbicidal rating (CASOB (Sicklepod); rate 0.1250 kg/ha): 2.0
CASOB preemergence herbicidal rating (CASOB (Sicklepod); rate 0.2500 kg/ha): 3.0
Preemergence herbicidal rating ABUTH (ABUTH (Velvetleaf) [4]; rate 0.0156 kg/ha): 9.0
Preemergence herbicidal rating ABUTH (ABUTH (Velvetleaf) [4]; rate 0.0313 kg/ha): 9.0
ABUTH preemergence herbicidal rating (ABUTH (Velvetleaf) [4]; rate 0.0625 kg/ha): 9.0
ABUTH preemergence herbicidal rating (ABUTH (Velvetleaf) [4]; rate 0.1250 kg/ha): 9.0
ABUTH preemergence herbicidal rating (ABUTH (Velvetleaf) [4]; rate 0.2500 kg/ha): 9.0
SETVI herbicidal rating (SETVI (Foxtail, Green) [5]; rate 0.0156 kg/ha): 0.0
SETVI herbicidal rating (SETVI (Foxtail, Green) [5]; rate 0.0313 kg/ha): 0.0
SETVI herbicidal rating (SETVI (Foxtail, Green) [5]; rate 0.0625 kg/ha): 0.0
GLXMAW herbicidal rating ([6]; rate 0.0156 kg/ha): 7.0
GLXMAW herbicidal rating ([6]; rate 0.0313 kg/ha): 7.5
GLXMAW herbicidal rating ([6]; rate 0.0625 kg/ha): 8.0
TRZAWR herbicidal rating ([7]; rate 0.0156 kg/ha): 2.0
TRZAWR herbicidal rating ([7]; rate 0.0313 kg/ha): 3.0
TRZAWR herbicidal rating ([7]; rate 0.0625 kg/ha): 3.0
Herbicidal rating MOOVA (MOOVA (Monochoria); 0.0313 kg/ha): 9.0
Herbicidal rating MOOVA (MOOVA (Monochoria); 0.0625 kg/ha): 9.0
Herbicidal rating MOOVA (MOOVA (Monochoria); 0.1250 kg/ha): 9.0
Herbicidal rating MOOVA (MOOVA (Monochoria); 0.2500 kg/ha): 9.0
ABUTH herbicidal rating (ABUTH (Velvetleaf) [8]; rate 0.0156 kg/ha): 9.0
ABUTH herbicidal rating (ABUTH (Velvetleaf) [8]; rate 0.0313 kg/ha): 9.0
ABUTH herbicidal rating (ABUTH (Velvetleaf) [8]; rate 0.0625 kg/ha): 9.0

CCOC(=O)CN1C(=O)C(=Cc2ccccc2)SC1=Nc1cc(-n2c(=O)cc(C(F)(F)F)n(C)c2=O)c(F)cc1Cl [Compound 19, Ethyl 5-benzylidene-2-{{2-chloro-5-[3,6-dihydro-3-methyl-2,6-dioxo-4-(trifluoromethyl)-1(2H)-pyrimidinyl]-4-fluorophenyl}imino}-4-oxo-3-thiazolidineacetate]
SETVI preemergence herbicidal rating (SETVI (Foxtail, Green) [1]; rate 0.1250 kg/ha): 0.0
SETVI preemergence herbicidal rating (SETVI (Foxtail, Green) [1]; rate 0.2500 kg/ha): 0.0
ECHCG herbicidal rating (ECHCG (Barnyardgrass); rate 0.0158 kg/ha): 1.0
ECHCG herbicidal rating (ECHCG (Barnyardgrass); rate 0.0315 kg/ha): 2.0
ECHCG herbicidal rating (ECHCG (Barnyardgrass); rate 0.0630 kg/ha): 2.0
AMBEL herbicidal rating (AMBEL (Ragweed, Common); rate 0.0158 kg/ha): 3.0
AMBEL herbicidal rating (AMBEL (Ragweed, Common); rate 0.0315 kg/ha): 3.0
AMBEL herbicidal rating (AMBEL (Ragweed, Common); rate 0.0630 kg/ha): 7.0
Herbicidal rating SAGPY ([2]; 0.1160 kg/ha): 0.0
Herbicidal rating SAGPY ([2]; 0.2310 kg/ha): 3.0
Herbicidal rating SAGPY ([2]; 0.4630 kg/ha): 3.0
ORYSAT herbicidal rating (ORYSAT (Rice, Tebonnet); rate 0.0158 kg/ha): 1.5
ORYSAT herbicidal rating (ORYSAT (Rice, Tebonnet); rate 0.0315 kg/ha): 2.0
ORYSAT herbicidal rating (ORYSAT (Rice, Tebonnet); rate 0.0630 kg/ha): 2.5
Herbicidal rating CYPIR (CYPIR (Rice Flatsedge); rate 0.1160 kg/ha): 0.0
Herbicidal rating CYPIR (CYPIR (Rice Flatsedge); rate 0.2310 kg/ha): 0.0
Herbicidal rating CYPIR (CYPIR (Rice Flatsedge); rate 0.4630 kg/ha): 0.0
Herbicidal rating SAGPY ([3]; rate 0.1160 kg/ha): 0.0
Herbicidal rating SAGPY ([3]; rate 0.2310 kg/ha): 3.0
Herbicidal rating SAGPY ([3]; rate 0.4630 kg/ha): 3.0
CASOB preemergence herbicidal rating (CASOB (Sicklepod); rate 0.1250 kg/ha): 0.0
CASOB preemergence herbicidal rating (CASOB (Sicklepod); rate 0.2500 kg/ha): 0.0
ABUTH preemergence herbicidal rating (ABUTH (Velvetleaf) [4]; rate 0.1250 kg/ha): 9.0
ABUTH preemergence herbicidal rating (ABUTH (Velvetleaf) [4]; rate 0.2500 kg/ha): 9.0
SETVI herbicidal rating (SETVI (Foxtail, Green) [5]; rate 0.0158 kg/ha): 1.0
SETVI herbicidal rating (SETVI (Foxtail, Green) [5]; rate 0.0315 kg/ha): 2.0
SETVI herbicidal rating (SETVI (Foxtail, Green) [5]; rate 0.0630 kg/ha): 2.0
GLXMAW herbicidal rating ([6]; rate 0.0158 kg/ha): 3.0
GLXMAW herbicidal rating ([6]; rate 0.0315 kg/ha): 4.5
GLXMAW herbicidal rating ([6]; rate 0.0630 kg/ha): 4.5
TRZAWR herbicidal rating ([7]; rate 0.0158 kg/ha): 3.0
TRZAWR herbicidal rating ([7]; rate 0.0315 kg/ha): 4.0
TRZAWR herbicidal rating ([7]; rate 0.0630 kg/ha): 4.5
Herbicidal rating MOOVA (MOOVA (Monochoria); 0.1160 kg/ha): 9.0
Herbicidal rating MOOVA (MOOVA (Monochoria); 0.2310 kg/ha): 9.0
Herbicidal rating MOOVA (MOOVA (Monochoria); 0.4630 kg/ha): 9.0
ABUTH herbicidal rating (ABUTH (Velvetleaf) [8]; rate 0.0158 kg/ha): 9.0
ABUTH herbicidal rating (ABUTH (Velvetleaf) [8]; rate 0.0315 kg/ha): 9.0
ABUTH herbicidal rating (ABUTH (Velvetleaf) [8]; rate 0.0630 kg/ha): 9.0
